Measured values taken from patent publication US20250215039A1, “NUCLEOSIDES FOR TREATING CANCER” (PRIMEFOUR THERAPEUTICS, INC., priority 2022, published 2025).
Where two headings read alike, the source gives them in different places.

System: cancer cell lines
Experiment: Cancer cell proliferation activity (CellTiterGlo, 72 h)
Assay type: cell-based
Conditions: 72 h, 72 h, read-out: IC50 cell proliferation
How it was run: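 Cells seeded overnight at 37 °C, then dosed with compound at 0.1% final DMSO and incubated 72 h at 37 °C (5% or 10% CO2 by medium).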

Structure (SMILES): CCC[C@]1(CO)O[C@@H](n2cnc3c(N)nc(F)nc32)[C@H](O)[C@@H]1O [compound 195, (2R,3S,4R,5R)-5-(6-amino-2-fluoro-9H-purin-9-yl)-2-(hydroxymethyl)-2-propyltetrahydrofuran-3,4-diol]
- IC50 (5637 (bladder)): 230 nM
- IC50 (CLS439 (bladder)): 400 nM
- IC50 (HS729 (muscle)): 150 nM
- IC50 (J82 (bladder)): 160 nM
- IC50 (JAR (placenta)): 100 nM
- IC50 (MT3 (breast)): 120 nM
- IC50 (PANCI (pancreas)): 2250 nM
- IC50 (PC3 (prostate)): 220 nM
- IC50 (RD (muscle)): 210 nM
- IC50 (T24 (bladder)): 300 nM
- IC50 (Homo sapiens, 22Rv1, 72 h, 22RV1 (prostate)): 540 nM
- IC50 (Homo sapiens, 786-0, 72 h, 786O (kidney)): 110 nM
- IC50 (Homo sapiens, A204, 72 h, A204 (muscle)): 140 nM
- IC50 (Homo sapiens, A549, 72 h, A549 (lung)): 60 nM
- IC50 (Homo sapiens, A673, 72 h, A673 (bone)): 700 nM
- IC50 (Homo sapiens, A2780, 72 h, A2780 (ovary)): 390 nM
- IC50 (Homo sapiens, A-375, 72 h, A375 (skin)): 110 nM
- IC50 (Homo sapiens, A-431, 72 h, A431 (skin)): 70 nM
- IC50 (Homo sapiens, ACHN, ACHN (kidney)): 90 nM
- IC50 (Homo sapiens, ASPC1, 72 h, ASPC1 (pancreas)): 130 nM
- IC50 (Homo sapiens, BT-20, 72 h, BT20 (breast)): 110 nM
- IC50 (Homo sapiens, BXPC-3, 72 h, BXPC3 (pancreas)): 80 nM
- IC50 (Homo sapiens, C-33-A, C33A (endometrial)): 380 nM
- IC50 (Homo sapiens, CAKI-1, 72 h, CAKI1 (kidney)): 20 nM
- IC50 (Homo sapiens, COLO 205, 72 h, COLO205 (colon)): 330 nM
- IC50 (Homo sapiens, COLO-678, 72 h, COLO678 (colon)): 100 nM
- IC50 (Homo sapiens, Ca-Ski, CASKI (endometrial)): 50 nM
- IC50 (Homo sapiens, Caco-2, 72 h, CACO2 (colon)): 280 nM
- IC50 (Homo sapiens, Calu-6, 72 h, CALU6 (lung)): 40 nM
- IC50 (Homo sapiens, DLD-1, 72 h, DLD1 (colon)): 510 nM
- IC50 (Homo sapiens, DU-145, 72 h, DU145 (prostate)): 30 nM
- IC50 (Homo sapiens, EFO-21, 72 h, EFO21 (ovary)): 150 nM
- IC50 (Homo sapiens, EJ-28, 72 h, EJ28 (bladder)): 140 nM
- IC50 (Homo sapiens, Granta-519, 72 h, GRANTA-519 (hematological)): 160 nM
- IC50 (Homo sapiens, HCT-15, 72 h, HCT15 (colon)): 290 nM
- IC50 (Homo sapiens, HCT-116, 72 h, HCT116 (colon)): 250 nM
- IC50 (Homo sapiens, HEK293, 72 h, HEK293 (kidney)): 200 nM
- IC50 (Homo sapiens, HL-60, 72 h, HL-60 (hematological)): 100 nM
- IC50 (Homo sapiens, HT-29, 72 h, HT29 (colon)): 260 nM
- IC50 (Homo sapiens, HT-1080, 72 h, HT1080 (connective tissue)): 270 nM
- IC50 (Homo sapiens, HeLa, HELA (endometrial)): 80 nM
- IC50 (Homo sapiens, HepG2, 72 h, HEPG2 (liver)): 170 nM
- IC50 (Homo sapiens, Hs-578T, HS578T (breast)): 60 nM
- IC50 (Homo sapiens, IGROV-1, 72 h, IGROV1 (ovary)): 80 nM
- IC50 (Homo sapiens, IMR-90, 72 h, IMR90 (lung)): 60 nM
- IC50 (Homo sapiens, JEG-3, 72 h, JEG3 (placenta)): 100 nM
- IC50 (Homo sapiens, JIMT-1, 72 h, JIMT1 (breast)): 30 nM
- IC50 (Homo sapiens, K562, 72 h, K-562 (hematological)): 530 nM
- IC50 (Homo sapiens, Kasumi 1, 72 h, KASUMI-1 (hematological)): 20 nM
- IC50 (Homo sapiens, L-363, 72 h, L-363 (hematological)): 90 nM
- IC50 (Homo sapiens, LoVo, LOVO (colon)): 30 nM
- IC50 (Homo sapiens, MCF7, 72 h, MCF7 (breast)): 390 nM
- IC50 (Homo sapiens, MDA-MB-231, 72 h, MDAMB231 (breast)): 240 nM
- IC50 (Homo sapiens, MDA-MB-435, 72 h, MDAMB435 (skin)): 320 nM
- IC50 (Homo sapiens, MDA-MB-436, 72 h, MDAMB436 (breast)): 80 nM
- IC50 (Homo sapiens, MDA-MB-468, 72 h, MDAMB468 (breast)): 70 nM
- IC50 (Homo sapiens, MG-63, 72 h, MG63 (bone)): 1730 nM
- IC50 (Homo sapiens, MHH-ES-1, 72 h, MHHES1 (bone)): 170 nM
- IC50 (Homo sapiens, MIA PaCa-2, 72 h, MIAPACA2 (pancreas)): 1750 nM
- IC50 (Homo sapiens, MINO, MINO (hematological)): 20 nM
- IC50 (Homo sapiens, MV4-11, 72 h, MV4-11 (hematological)): 20 nM
- IC50 (Homo sapiens, NCI-H23, 72 h, NCI-H23 (lung)): 220 nM
- IC50 (Homo sapiens, NCI-H82, 72 h, NCIH82 (lung)): 170 nM
- IC50 (Homo sapiens, NCI-H292, 72 h, NCIH292 (lung)): 150 nM
- IC50 (Homo sapiens, NCI-H460, 72 h, NCIH460 (lung)): 170 nM
- IC50 (Homo sapiens, OVCAR-3, 72 h, OVCAR3 (ovary)): 80 nM
- IC50 (Homo sapiens, OVCAR-4, 72 h, OVCAR4 (ovary)): 150 nM
- IC50 (Homo sapiens, PLC-PRF-5, 72 h, PLCPRF5 (liver)): 1040 nM
- IC50 (Homo sapiens, Panc1005, 72 h, PANC1005 (pancreas)): 180 nM
- IC50 (Homo sapiens, Ramos, RAMOS (hematological)): 140 nM
- IC50 (Homo sapiens, SAOS-2, 72 h, SAOS2 (bone)): 100 nM
- IC50 (Homo sapiens, SF-268, 72 h, SF268 (brain)): 300 nM
- IC50 (Homo sapiens, SF-295, 72 h, SF295 (brain)): 220 nM
- IC50 (Homo sapiens, SK-BR-3, 72 h, SKBR3 (breast)): 30 nM
- IC50 (Homo sapiens, SK-HEP1, 72 h, SKHEP1 (liver)): 60 nM
- IC50 (Homo sapiens, SK-LMS-1, 72 h, SKLMS1 (uterus)): 140 nM
- IC50 (Homo sapiens, SK-MEL-5, 72 h, SKMEL5 (skin; SKMELS [sic] in Table 9E)): 90 nM
- IC50 (Homo sapiens, SK-MEL-28, 72 h, SKMEL28 (skin)): 100 nM
- IC50 (Homo sapiens, SK-N-AS, SKNAS (brain)): 120 nM
- IC50 (Homo sapiens, SK-N-SH, SKNSH (brain)): 80 nM
- IC50 (Homo sapiens, SK-OV-3, 72 h, SKOV3 (ovary)): 90 nM
- IC50 (Homo sapiens, SNB-75, 72 h, SNB75 (brain)): 220 nM
- IC50 (Homo sapiens, SU-DHL10, 72 h, SU-DHL-10 (hematological)): 210 nM
- IC50 (Homo sapiens, SU-DHL-6, 72 h, SU-DHL-6 (hematological)): 60 nM
- IC50 (Homo sapiens, SW-620, 72 h, SW620 (colon)): 80 nM
- IC50 (Homo sapiens, TE-671, 72 h, TE671 (muscle)): 730 nM
- IC50 (Homo sapiens, THP-1, 72 h, THP-1 (hematological)): 200 nM
- IC50 (Homo sapiens, U2OS, U20S (bone; U2OS in Table 9E)): 70 nM
- IC50 (Homo sapiens, U-87 MG, U87MG (brain)): 150 nM
- IC50 (Homo sapiens, UMUC3, 72 h, UMUC3 (bladder)): 190 nM
- IC50 (Homo sapiens, UO-31, 72 h, UO31 (kidney)): 50 nM
- IC50 (Homo sapiens, WSU-NHL, WSU-NHL (hematological)): 40 nM
- IC50 (NCI-H358M, NCIH358M (lung)): 140 nM
- IC50 (PBMC, PBMC (hematological)): 20 nM
- IC50 (RD-ES, RDES (bone)): 40 nM
